Results as given in patent publication US11752140B2, “Compositions comprising substituted benzofuroquinolizine and psychoactive drug” (VETCARE OY, priority 2016, dated 2023).

How the values were obtained:
[1] = Plasma concentrations of butorphanol and midazolam in dogs after IM administration of composition with or without MK-467; conditions: for Peak plasma concentration / Time at which peak plasma concentration was reached from the IM administration: IM
Method: Plasma Concentrations of Butorphanol and Midazolam in Dogs after IM Administration of a Composition Comprising MK-467, Butorphanol, Midazolam and Medetomidine, Compared with Composition without MK-467
A liquid aqueous composition comprising MK-467, butorphanol tartrate, midazolam and medetomidine was administered to a dog intramuscularly (IM) to provide a dosage of MK-467 500 μg/kg, butorphanol 100 μg/kg, midazolam 200 μg/kg and medetomidine 20 μg/kg.
Five purpose-bred, adult beagles were used for this study.
Study design: A prospective, randomized, experimental cross-over study.
Each dog was treated for two times with a 14-day wash-out period:
Treatment 1. medetomidine (20 μg/kg)+butorphanol (100 μg/kg)+midazolam (0.2 mg/kg)
Treatment 2. medetomidine (20 μg/kg)+MK-467 (MK) (500 μg/kg)+butorphanol (100 μg/kg)+midazolam (0.2 mg/kg).
For treatment 1. 1 mL of medetomidine (Dorbene 1 mg/mL) was diluted with 1 mL of saline. For treatment 2. 25 mg of MK-467 was mixed with 1 mL of medetomidine, and 1 mL of saline was added. The mixture, butorphanol (Torpudor 10 mg/mL) and midazolam (Midazolam Hameln 5 mg/mL) were aspirated into a single syringe. The end volume of the injectable in both treatments was 0.09 mL/kg.
Dog was positioned laterally and the drugs were injected IM into the epaxial muscle. Central venous blood was sampled into EDTA-tubes at 0, 3, 6, 10, 15, 20, 25, 30, 40, 50, 60 and 90 minutes after drug administration. The plasma concentrations were analyzed with LC/MS/MS for plasma concentrations of dexmedetomidine, midazolam and butorphanol.

dogs [2] = conditions: MK-467 250, 500, 750 μg/kg with dexmedetomidine 10 μg/kg IV (Restitutti 2011); cited from earlier work
dogs [3] = conditions: medetomidine 20 μg/kg IM or 10 μg/kg IV alone (Rolfe 2012); cited from earlier work
[4] = in the presence of MK-467 500 μg/kg, with medetomidine 20 μg/kg, butorphanol 100 μg/kg, midazolam 200 μg/kg in the same syringe
[5] = without MK-467, medetomidine, butorphanol, midazolam in the same syringe
[6] = parenteral extravascular administration, composition with MK-467

| SMILES | Peak plasma concentration [1, 4] [ng/mL] | Time at which peak plasma concentration was reached from the IM administration ([1]; with MK-467) [min] | Time at which peak plasma concentration was reached from the IM administration ([1]; without MK-467) [min] | Peak plasma concentration [1, 5] [ng/mL] | Time at which maximum plasma concentration was reached [1, 6] [min] | Time at which maximum plasma concentration was reached ([1]; without MK-467) [min] | Effect on bispectral index (BIS) values (dogs [2]) | Heart rate, Pvo(2) and cardiac index compared with baseline (dogs [3]) | MAP, SVR and oxygen extraction ratio compared with baseline (dogs [3]) |
| --- | --- | --- | --- | --- | --- | --- | --- | --- | --- |
| Cc1ncc2n1-c1ccc(Cl)cc1C(c1ccccc1F)=NC2 [midazolam] | 133 | ≤ 5 | ≤ 30 | 71 | 5 | 20 | – | – | – |
| Oc1ccc2c(c1)[C@@]13CCCC[C@@]1(O)[C@@H](C2)N(CC1CCC1)CC3 [butorphanol] | 17 | ≤ 10 | ≤ 30 | 11 | 10 | 30 | – | – | – |
| Cc1cccc([C@H](C)c2cnc[nH]2)c1C [Dexmedetomidine, (S)-4-[1-(2,3-Dimethylphenyl)ethyl]-3H-imidazole] | – | – | – | – | – | – | decreased BIS-values | – | – |
| Cc1cccc(C(C)c2cnc[nH]2)c1C (racemic) [medetomidine, (RS)-4-[1-(2,3-dimethylphenyl)ethyl]-3H-imidazole] | – | – | – | – | – | – | – | significantly lower | significantly higher |
